Measured values as given in patent publication US11000033B2, “Ketone or oxime compound, and herbicide” (NISSAN CHEMICAL CORPORATION, priority 2014, dated 2021).

Experiments:
Format in all cases: in vivo
Amaranthus retroflexus = assay: Test Example 4: herbicidal effect by soil treatment (symbol N); settings: 320 g/ha
How it was run: (§1)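 Seeds were sown in sterilized diluvial soil, covered with about 1.5 cm of soil, and the soil surface was sprayed with a water-diluted emulsion of the compound at a predetermined rate. Plants grew in a greenhouse at 25° C. to 30° C.; effects were scored visually 3 weeks after application.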

Avena fatua = assay: Test Example 5: herbicidal effect by foliage application, plastic box (symbol I); settings: 320 g/ha, 3 weeks after application
How it was run: (§2)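 Emulsion formulation, diluted with water to the intended rate, was applied uniformly to leaves by small sprayer. Recipients were 14-day greenhouse-grown seedlings (25° C. to 30° C.). Assessment followed at 3 weeks.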

[1] = system: Echinochloa oryzacola Vasing.; assay: Test Example 2: herbicidal activity, application during weed generation in submerged conditions (symbol A); settings: Table 23; application herbicide amount 320 g/ha; grade 0-5 by criteria of Test Example 1
How it was run: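 Read-out: herbicidal effect on each species rated on a visual scale 3 weeks after treatment. Plants were raised together from seed in flooded alluvial soil (4 cm water) at 25° C. to 30° C. and treated at one to two leaves by water-surface application of diluted emulsion.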

Setaria viridis [2] = assay: Test Example 4: herbicidal effect by soil treatment (symbol G); settings: 320 g/ha
How it was run: as §1

Chenopodium album [3] = assay: Test Example 4: herbicidal effect by soil treatment (symbol O); settings: 320 g/ha
How it was run: as §1

Apera spica-venti = assay: Test Example 4: herbicidal effect by soil treatment (symbol L); settings: 320 g/ha
How it was run: as §1

Stellaria media = assay: Test Example 4: herbicidal effect by soil treatment (symbol P); settings: 320 g/ha
How it was run: as §1

Monochoria vaginalis = assay: Test Example 1: herbicidal activity, application before weed generation in submerged conditions (symbol C); settings: application herbicide amount 320 g/ha
How it was run: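 Mixed weed seeds sown in alluvial soil under 4 cm of water, with rice seedlings at the 2.5-leaf stage added. Same-day treatment: emulsion diluted to a set herbicide amount onto the water. Three weeks at 25–30 °C, then graded on a six-step scale.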

Chenopodium album [4] = assay: Test Example 5: herbicidal effect by foliage application, plastic box (symbol O); settings: 320 g/ha, 3 weeks after application
How it was run: as §2

Veronica persica = assay: Test Example 4: herbicidal effect by soil treatment (symbol R); settings: 320 g/ha
How it was run: as §1

beet = assay: Test Example 5: effect on crop by foliage application, plastic box (symbol f); settings: 320 g/ha, 3 weeks after application
How it was run: (§3)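 Greenhouse culture at 25° C. to 30° C. followed spot-like sowing into sterilized diluvial soil, with seed covered by roughly 1.5 cm of soil.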

rice plant = assay: Test Example 5: effect on crop by foliage application, plastic box (symbol b); settings: 320 g/ha, 3 weeks after application
How it was run: as §3

Setaria viridis [5] = assay: Test Example 5: herbicidal effect by foliage application, plastic box (symbol G); settings: 320 g/ha, 3 weeks after application
How it was run: as §2

Compound	N: Amaranthus retroflexus, herbicidal effect grade (Amaranthus retroflexus)	I: Avena fatua, herbicidal effect (criteria 0-5) (Avena fatua)	Herbicidal effect grade, A: Echinochloa oryzacola Vasing. [1]	G: Setaria viridis, herbicidal effect grade (Setaria viridis [2])	O: Chenopodium album, herbicidal effect grade (Chenopodium album [3])	L: Apera spica-venti, herbicidal effect grade (Apera spica-venti)	P: Stellaria media, herbicidal effect grade (Stellaria media)	Herbicidal effect grade, C: Monochoria vaginalis (Monochoria vaginalis)	O: Chenopodium album, herbicidal effect (criteria 0-5) (Chenopodium album [4])	R: Veronica persica, herbicidal effect grade (Veronica persica)	f: beet, effect on crop (criteria 0-5) (beet)	b: directly sowed rice plant, effect on crop (criteria 0-5) (rice plant)	G: Setaria viridis, herbicidal effect (criteria 0-5) (Setaria viridis [5])
CON=C(C)CC1CC(OC(=O)COc2ccc(C=O)cc2)=C(c2c(C)cc(C)cc2C)C1=O (stereo not drawn) [1-079]	4 (Herbicidal ratio of 70% or higher and lower than 90%)	5 (Herbicidal ratio of 90% or more (almost completely withered))	5 (Herbicidal ratio of 90% or more (almost completely withered))	5 (Herbicidal ratio of 90% or more (almost completely withered))	0 (Herbicidal ratio of 5% or lower (almost no effect))	5 (Herbicidal ratio of 90% or more (almost completely withered))	0 (Herbicidal ratio of 5% or lower (almost no effect))	3 (Herbicidal ratio of 40% or higher and lower than 70%)	0 (Herbicidal ratio of 5% or lower (almost no effect))	0 (Herbicidal ratio of 5% or lower (almost no effect))	0 (Herbicidal ratio of 5% or lower (almost no effect))	5 (Herbicidal ratio of 90% or more (almost completely withered))	5 (Herbicidal ratio of 90% or more (almost completely withered))
CON=C(C)CC1CC(OC(=O)COc2ccc(Br)cc2)=C(c2c(C)cc(C)cc2C)C1=O (stereo not drawn) [1-081]	4 (Herbicidal ratio of 70% or higher and lower than 90%)	5 (Herbicidal ratio of 90% or more (almost completely withered))	5 (Herbicidal ratio of 90% or more (almost completely withered))	5 (Herbicidal ratio of 90% or more (almost completely withered))	0 (Herbicidal ratio of 5% or lower (almost no effect))	5 (Herbicidal ratio of 90% or more (almost completely withered))	0 (Herbicidal ratio of 5% or lower (almost no effect))	2 (Herbicidal ratio of 20% or higher and lower than 40%)	3 (Herbicidal ratio of 40% or higher and lower than 70%)	0 (Herbicidal ratio of 5% or lower (almost no effect))	0 (Herbicidal ratio of 5% or lower (almost no effect))	5 (Herbicidal ratio of 90% or more (almost completely withered))	5 (Herbicidal ratio of 90% or more (almost completely withered))
CON=C(C)CC1CC(OC(=O)COc2ccc3ccccc3c2)=C(c2c(C)cc(C)cc2C)C1=O (stereo not drawn) [1-083]	5 (Herbicidal ratio of 90% or more (almost completely withered))	5 (Herbicidal ratio of 90% or more (almost completely withered))	5 (Herbicidal ratio of 90% or more (almost completely withered))	5 (Herbicidal ratio of 90% or more (almost completely withered))	0 (Herbicidal ratio of 5% or lower (almost no effect))	5 (Herbicidal ratio of 90% or more (almost completely withered))	0 (Herbicidal ratio of 5% or lower (almost no effect))	1 (Herbicidal ratio of 5% or higher and lower than 20%)	0 (Herbicidal ratio of 5% or lower (almost no effect))	0 (Herbicidal ratio of 5% or lower (almost no effect))	0 (Herbicidal ratio of 5% or lower (almost no effect))	5 (Herbicidal ratio of 90% or more (almost completely withered))	5 (Herbicidal ratio of 90% or more (almost completely withered))
CON=C(CC1CC(O)=C(c2c(C)cc(C)cc2C)C1=O)C1CCCCC1 (stereo not drawn) [1-085]	0 (Herbicidal ratio of 5% or lower (almost no effect))	3 (Herbicidal ratio of 40% or higher and lower than 70%)	3 (Herbicidal ratio of 40% or higher and lower than 70%)	5 (Herbicidal ratio of 90% or more (almost completely withered))	0 (Herbicidal ratio of 5% or lower (almost no effect))	3 (Herbicidal ratio of 40% or higher and lower than 70%)	0 (Herbicidal ratio of 5% or lower (almost no effect))	0 (Herbicidal ratio of 5% or lower (almost no effect))	0 (Herbicidal ratio of 5% or lower (almost no effect))	0 (Herbicidal ratio of 5% or lower (almost no effect))	0 (Herbicidal ratio of 5% or lower (almost no effect))	4 (Herbicidal ratio of 70% or higher and lower than 90%)	5 (Herbicidal ratio of 90% or more (almost completely withered))
C=CC(CC1CC(O)=C(c2c(C)cc(C)cc2C)C1=O)=NOC (stereo not drawn) [1-086]	0 (Herbicidal ratio of 5% or lower (almost no effect))	4 (Herbicidal ratio of 70% or higher and lower than 90%)	5 (Herbicidal ratio of 90% or more (almost completely withered))	4 (Herbicidal ratio of 70% or higher and lower than 90%)	0 (Herbicidal ratio of 5% or lower (almost no effect))	3 (Herbicidal ratio of 40% or higher and lower than 70%)	0 (Herbicidal ratio of 5% or lower (almost no effect))	0 (Herbicidal ratio of 5% or lower (almost no effect))	0 (Herbicidal ratio of 5% or lower (almost no effect))	0 (Herbicidal ratio of 5% or lower (almost no effect))	0 (Herbicidal ratio of 5% or lower (almost no effect))	4 (Herbicidal ratio of 70% or higher and lower than 90%)	3 (Herbicidal ratio of 40% or higher and lower than 70%)
CON=C(C)CC1CC(OC(=O)C2=CCCC2)=C(c2c(C)cc(C)cc2C)C1=O (stereo not drawn) [1-088]	1 (Herbicidal ratio of 5% or higher and lower than 20%)	5 (Herbicidal ratio of 90% or more (almost completely withered))	5 (Herbicidal ratio of 90% or more (almost completely withered))	5 (Herbicidal ratio of 90% or more (almost completely withered))	0 (Herbicidal ratio of 5% or lower (almost no effect))	5 (Herbicidal ratio of 90% or more (almost completely withered))	0 (Herbicidal ratio of 5% or lower (almost no effect))	0 (Herbicidal ratio of 5% or lower (almost no effect))	2 (Herbicidal ratio of 20% or higher and lower than 40%)	0 (Herbicidal ratio of 5% or lower (almost no effect))	0 (Herbicidal ratio of 5% or lower (almost no effect))	5 (Herbicidal ratio of 90% or more (almost completely withered))	5 (Herbicidal ratio of 90% or more (almost completely withered))
